The source of these data is patent US6515124B2, “Dehydroamino acids” (Hoffman-La Roche Inc., priority 2000, dated 2003).

The target in assay [1] is T1, LFA-1 binding to immobilized ICAM-1 (Homo sapiens, UniProt P05107+P20701).
T1 construct: made in house; host or cells: transfected 293 cells (LFA-1)
As to the kind of experiment: LFA-1/ICAM-1 Protein-Protein Assay (solid-phase ELISA). Conditions: 5dICAM-Ig coated plates, membrane-bound LFA-1 from transfected 293 cells. As to the method: LFA-1/ICAM-1 Protein-Protein Assay
LFA-1/ICAM-1 antagonist activity, defined as the ability to block LFA-1 binding to immobilized ICAM-1, was quantitated using a solid-phase ELISA. Typically, fusion protein consisting of the entire extracellular domain of human ICAM-1 and the Fc domain of human IgG (5dICAM-Ig) was coated onto 96-well microtiter plates (0.15 μg in 100 μL PBS) overnight at 4° C. The plates were then blocked with 150 μL of 1% BSA/1 mM MnCl2/0.14 M NaCl/20 mM HEPES, pH 7.2 for 1 h at 37° C. and washed 3 times (150 μL each) with Wash Buffer (50 mM Tris, pH 7.4/100 mM NaCl/1 mM MnCl2/0.05% Tween 20). Stock solutions (100 μM in 100% DMSO) of test compounds were diluted 50 fold with 150 μL of Binding Buffer (0.05% BSA/0.05% Tween 20/1 mM MnCl2/0.14 M NaCl/20 mM HEPES, pH 7.2) plus 10% DMSO. A series of 1:4 dilutions were performed to achieve a concentration range of 0.12 nM-2 μM. Fifty μL per well of each dilution was added to the ICAM-1 coated plates, followed by 50 μL per well of membrane-bound LFA-1 (280 ng/mL in Binding Buffer) derived from transfected 293 cells. The plates were shaken vigorously for 1 min (room temperature) and gently for 2 h (37° C.). After incubation, the plates were washed 3 times (150 μL each) with Wash Buffer. Mouse anti-human integrin β2 monoclonal antibody was added (100 μL/well, 1 μg/ml in Binding Buffer) and allowed to incubate for 1 h (37° C.) with gentle agitation. The plates were then washed 3 times with Wash Buffer. HRP-conjugated goat anti-mouse IgG (100 μL/well, 1:1500 dilution in Binding Buffer) was added to each well, followed by incubation for 1 h (37° C.) and concluded by three washes (150 μL each) with Wash Buffer. TMB solution (100 μL per well) was added for color development (10 min). The reaction was stopped by the addition of 100 μL of 1M H3PO4 to each well. The plates were then read at 450 nm.
For orientation: ELISA stands for enzyme-linked immunosorbent assay.

Assay [2] concerns T lymphocyte proliferation (murine spleen cells). Put plainly: Mixed Lymphocyte Reaction (MLR), one-way. The following applies: C57B1/6 spleen cells with irradiated BALB/c spleen cells, tritiated thymidine incorporation, 3 days. The class given is cell-based, mice. An excerpt: Mixed Lymphocyte Reaction (MLR)
Admixture of murine spleen cells from two different inbred strains of mice induces proliferation of T lymphocytes. The magnitude of T cell proliferation depends on the extent of disparity in the major histocompatibility antigens between the two strains. Splenic T lymphocytes from both strains proliferate due to alloantigen recognition, a process for which the interaction of ICAM-1 on antigen-presenting cells with LFA-1 on lymphocytes is necessary. The ability of antagonists to inhibit T lymphocyte proliferation following recognition of alloantigens was assessed in a one-way MLR, where cells from one strain were irradiated to permit measurement of the proliferative response of cells from the other strain. Spleen cells were washed three times in tissue culture medium (TCM; see below). Fifty microliters of a spleen cell suspension (prepared at 10×10^6 cells/ml in TCM) obtained from C57B1/6 mice were added to an equal number of lethally-irradiated (2000 rads) spleen cells obtained from BALB/c mice in a 96-well U-bottom tissue culture plate (Costar, 3799). One hundred microliters of serial dilutions of antagonists or TCM were added to the spleen cell mixture. The total volume in each well was 200 μL. TCM was RPMI1640 containing 10% heat-inactivated fetal bovine serum, […] L-glutamine, 100 Units/ml each of penicillin and streptomycin and 5×10^−5 M 2-mercaptoethanol. Dilutions of antagonists were prepared in TCM. Plates were incubated in 5% CO2 for 3 days. On the third day, 0.5 μCi of tritiated thymidine (10 μCi/mL) was added to all the wells. Cells were harvested 6 h later on a 96-well plate harvester and the amount of tritiated thymidine incorporated was assessed in a liquid scintillation counter.
Background: Incorporation of labelled thymidine or its analogues reports DNA synthesis.

Setting [3] is: Mus musculus, T-lymphocyte, light or radiation study, 72 h.

Usually IC50 stands for the midpoint of a concentration-inhibition curve.

Structures are written as SMILES.

T1 sequence (P20701 26-1170): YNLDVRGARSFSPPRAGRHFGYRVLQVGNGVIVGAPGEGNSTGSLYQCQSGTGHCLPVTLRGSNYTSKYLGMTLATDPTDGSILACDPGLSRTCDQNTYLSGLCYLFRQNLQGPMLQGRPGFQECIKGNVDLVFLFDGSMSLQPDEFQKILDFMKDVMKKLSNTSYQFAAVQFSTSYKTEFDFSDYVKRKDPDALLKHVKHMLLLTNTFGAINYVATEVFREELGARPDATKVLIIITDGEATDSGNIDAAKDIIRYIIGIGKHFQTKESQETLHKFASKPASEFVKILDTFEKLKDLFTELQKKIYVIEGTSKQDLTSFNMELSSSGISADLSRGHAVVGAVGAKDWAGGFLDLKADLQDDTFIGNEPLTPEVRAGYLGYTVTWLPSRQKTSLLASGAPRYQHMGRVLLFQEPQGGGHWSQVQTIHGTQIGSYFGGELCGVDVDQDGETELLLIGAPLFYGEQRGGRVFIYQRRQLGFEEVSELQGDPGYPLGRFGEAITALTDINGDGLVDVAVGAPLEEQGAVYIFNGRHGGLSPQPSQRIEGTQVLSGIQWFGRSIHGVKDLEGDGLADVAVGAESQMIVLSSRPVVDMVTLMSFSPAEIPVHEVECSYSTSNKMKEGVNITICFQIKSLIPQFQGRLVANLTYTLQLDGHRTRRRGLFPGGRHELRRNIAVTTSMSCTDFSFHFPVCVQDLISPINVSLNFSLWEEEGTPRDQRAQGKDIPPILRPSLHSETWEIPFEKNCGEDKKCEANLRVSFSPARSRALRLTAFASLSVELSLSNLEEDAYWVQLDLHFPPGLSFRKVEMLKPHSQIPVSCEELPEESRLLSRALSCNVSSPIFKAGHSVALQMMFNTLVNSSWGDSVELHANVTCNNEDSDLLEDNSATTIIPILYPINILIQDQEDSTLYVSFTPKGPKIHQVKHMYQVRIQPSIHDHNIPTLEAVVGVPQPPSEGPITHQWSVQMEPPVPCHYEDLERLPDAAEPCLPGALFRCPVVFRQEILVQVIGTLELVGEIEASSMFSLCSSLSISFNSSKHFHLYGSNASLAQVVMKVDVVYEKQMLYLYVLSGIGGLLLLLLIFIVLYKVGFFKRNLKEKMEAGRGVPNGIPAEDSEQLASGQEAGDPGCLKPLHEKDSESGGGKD
T1 sequence (P05107 23-769): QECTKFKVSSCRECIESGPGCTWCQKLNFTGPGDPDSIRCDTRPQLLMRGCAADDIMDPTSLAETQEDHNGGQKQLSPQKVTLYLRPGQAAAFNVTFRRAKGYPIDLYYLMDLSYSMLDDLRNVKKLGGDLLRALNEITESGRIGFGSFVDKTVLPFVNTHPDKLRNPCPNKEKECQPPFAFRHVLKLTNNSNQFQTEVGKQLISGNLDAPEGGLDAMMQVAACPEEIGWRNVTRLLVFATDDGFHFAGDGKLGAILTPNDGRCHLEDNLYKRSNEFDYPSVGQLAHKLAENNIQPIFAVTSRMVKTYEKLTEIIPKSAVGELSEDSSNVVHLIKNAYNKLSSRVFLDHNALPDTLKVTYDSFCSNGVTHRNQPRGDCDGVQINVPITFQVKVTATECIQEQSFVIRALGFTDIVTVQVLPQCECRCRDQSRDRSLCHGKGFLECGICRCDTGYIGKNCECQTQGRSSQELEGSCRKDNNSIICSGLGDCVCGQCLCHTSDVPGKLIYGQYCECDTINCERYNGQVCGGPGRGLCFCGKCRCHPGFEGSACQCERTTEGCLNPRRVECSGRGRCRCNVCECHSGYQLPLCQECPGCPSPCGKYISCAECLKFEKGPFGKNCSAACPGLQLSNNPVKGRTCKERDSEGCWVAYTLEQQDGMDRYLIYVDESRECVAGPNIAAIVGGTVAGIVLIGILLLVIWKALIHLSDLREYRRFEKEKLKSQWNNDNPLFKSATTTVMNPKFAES

As for `O=C(O)/C(=C/c1ccc2ccccc2c1)NC(=O)c1ccc(C(=O)NCc2cccc3[nH]ccc23)cc1Cl` [Example 307], the half-inhibitory concentration (IC50) in assay [1] stood at 18.6 nM; in assay [2] (setting [3]) it was 27000 nM. As to `Cc1cc(C(=O)NCc2cccc(O)c2)cc(C)c1C(=O)N/C(=C\c1ccc2[nH]nnc2c1)C(=O)O` [Example 326, (Z)-3-(1H-Benzotriazol-5-yl)-2-[[4-[[(3-hydroxybenzyl)amino]carbonyl]-2,6-dimethylbenzoyl]amino]propenoic Acid], the half-maximal inhibitory concentration (IC50) in assay [1] is 1.12 nM.

As to `Cc1cc(C(=O)NCc2cccc(O)c2)ccc1C(=O)N/C(=C\c1ccc2cc[nH]c2c1)C(=O)O` [Example 316, (Z)-2-[[4-[[(3-Hydroxybenzyl)amino]carbonyl]-2-methylbenzoyl]amino]-3-(1N-indol-6-yl)propenoic Acid], the concentration for half-maximal inhibition (IC50) in assay [1] stood at 3 nM; in assay [2] (setting [3]), 1150 nM. The matching figures for `CC(C)c1ncsc1/C=C(\NC(=O)c1ccc(C(=O)NCc2cccc(O)c2)cc1Cl)C(=O)O` [Example 300, (Z)-2-[[2-Chloro-4-[[(3-hydroxybenzyl)amino]carbonyl]benzoyl]amino]-3-[4-(1-methylethyl)thiazol-5-yl]propenoic Acid]: 32.5 nM and 21500 nM. Take `Cc1nc(C)c(/C=C(\NC(=O)c2ccc(C(=O)NCc3cccc4[nH]ccc34)cc2Br)C(=O)O)s1` [Example 249]: the 50% inhibitory concentration (IC50) amounted to 5.78 nM in assay [1] and 16000 nM in assay [2] (setting [3]).

Consider `O=C(O)/C(=C/c1ccc2[nH]nnc2c1)NC(=O)c1ccc(C(=O)NCc2cccc(O)c2)cc1Br` [Example 285], for which the half-inhibitory concentration (IC50) came to 1.14 nM in assay [1] (disodium salt), 0.34 nM in assay [1] (trifluoroacetate salt), 190 nM in assay [2] (listed as 285^c) and 235 nM in assay [2] (setting [3]). In the case of `O=C(O)/C(=C/c1ccc2[nH]nnc2c1)NC(=O)c1ccc(C(=O)NCc2cccc3[nH]ccc23)cc1Br` [Example 286], the values for the 50% inhibitory concentration (IC50) in assay [1] and in assay [2] (setting [3]) were 0.74 nM and 1200 nM, respectively. For `O=C(O)/C(=C/c1ccccn1)NC(=O)c1ccc(C(=O)NCc2cccc(O)c2)cc1Br` [Example 273] the same measures were 5.4 nM and 1400 nM. Regarding `Cc1nc(C)c(/C=C(\NC(=O)c2c(C)cc(C(=O)N[C@H](C)c3cccc4ccccc34)cc2C)C(=O)O)s1` [Example 251], the IC50 in assay [1] stood at 20.5 nM; in assay [2] (setting [3]), 20000 nM. `Cc1cc(C(=O)NCc2cc(F)cc(F)c2)cc(C)c1C(=O)N/C(=C\c1[nH]cnc1C)C(=O)O` [Example 250, (Z)-2-[[4-[[(3,5-Difluorobenzyl)amino]carbonyl]-2,6-dimethylbenzoyl]amino]-3-(4-methyl-1H-imidazol-5-yl)propenoic Acid]: the IC50 in assay [1] is 37 nM. Consider `O=C(O)/C(=C/c1nc[nH]n1)NC(=O)c1ccc(C(=O)NCc2cccc(O)c2)cc1Br` [Example 290, (Z)-2-[[2-Bromo-4-[[(3-hydroxybenzyl)amino]carbonyl]benzoyl]amino]-3-(1,2,4triazol-3-yl)propenoic Acid], for which the results for the IC50 in assay [1] and in assay [2] (setting [3]) were 13.4 nM and 1300 nM, respectively. For the compound `O=C(O)/C(=C/c1ccc2ccccc2n1)NC(=O)c1ccc(C(=O)NCc2cccc(O)c2)cc1Br` [Example 275], the 50% inhibitory concentration (IC50) in assay [1] was determined as 42.5 nM. In turn, `O=C(O)/C(=C/c1cnc2ccccc2c1)NC(=O)c1ccc(C(=O)NCc2ccc3cc[nH]c3c2)cc1Cl` [Example 324, (Z)-2-[[2-Chloro-4-[[[(1N-indol-6-yl)methyl]amino]carbonyl]benzoyl]amino]-3-(quinolin-3-yl)propenoic Acid] came in with an IC50 in assay [1] of 50.8 nM.

Compound `O=C(O)/C(=C/CC1CCCCN1)NC(=O)c1ccc(C(=O)NCc2cccc(O)c2)cc1Br` (racemic) [Example 320] had a half-inhibitory concentration (IC50) in assay [1] of 140 nM.

With `COc1ncc(/C=C(\NC(=O)c2ccc(C(=O)NCc3cccc(O)c3)cc2Br)C(=O)O)c(OC)n1` [Example 284], the 50% inhibitory concentration (IC50) in assay [1] was 12.6 nM. The compound `O=C(O)/C(=C/c1cnc(-c2cccs2)s1)NC(=O)c1ccc(C(=O)NCc2cccc(O)c2)cc1Br` [Example 262] had an IC50 in assay [1] of 123 nM. The compound `O=C(O)/C(=C/C1CCCNC1)NC(=O)c1ccc(C(=O)NCc2cccc(O)c2)cc1Br` (racemic) [Example 318] yielded an IC50 in assay [1] of 171 nM. Regarding `CC(C)c1csc(/C=C(\NC(=O)c2ccc(C(=O)NCc3cccc(O)c3)cc2Br)C(=O)O)n1` [Example 256], the IC50 in assay [1] amounted to 279 nM. Still for that read-out and setting: under `O=C(O)/C(=C/C1CCNCC1)NC(=O)c1ccc(C(=O)NCc2cccc(O)c2)cc1Br` [Example 319] stands 72 nM; under `O=C(O)/C(=C/c1ccccn1)NC(=O)c1ccc(C(=O)NCc2cccc3[nH]ccc23)cc1Cl` [Example 310], 56.1 nM. Turning to `O=C(O)/C(=C/c1cccs1)NC(=O)c1ccc(C(=O)NCc2cccc3[nH]ccc23)cc1Cl` [Example 308], the IC50 in assay [1] amounted to 56.3 nM.

In assay [1], `O=C(O)/C(=C/c1ccoc1)NC(=O)c1ccc(C(=O)NCc2cccc(O)c2)cc1Br` [Example 243] registered an IC50 of 13.2 nM. As to `O=C(O)/C(=C/c1nc(C(F)(F)F)cs1)NC(=O)c1ccc(C(=O)NCc2cccc(O)c2)cc1Br` [Example 257], the IC50 in assay [1] worked out at 101 nM. On the same count and under the same terms, under `CC/C=C(\NC(=O)c1ccc(C(=O)NCc2cccc(O)c2)cc1Br)C(=O)O` [Example 289] stands 40.9 nM.

Regarding `O=C(O)/C(=C/c1cnnc2ccccc12)NC(=O)c1ccc(C(=O)NCc2cccc(O)c2)cc1Br` [Example 265], the IC50 in assay [1] turned out to be 124 nM.

As to `O=C(O)/C(=C/c1ccsc1)NC(=O)c1ccc(C(=O)NCc2cccc(O)c2)cc1Br` [Example 313], in assay [1], the 50% inhibitory concentration (IC50) came out at 8.2 nM. On to `Cc1cc(C(=O)N[C@H](C)c2cccc3ccccc23)cc(C)c1C(=O)N/C(=C\c1ccncc1)C(=O)O` [Example 238], for which the IC50 in assay [1] was found to be 16.7 nM. Regarding `C[C@@H](NC(=O)c1ccc(C(=O)N/C(=C\c2cccs2)C(=O)O)c(Cl)c1)c1cccc2ccccc12` [Example 327], in assay [1], the IC50 worked out at 20.4 nM. As for `Cc1nc(C(C)C)c(/C=C(\NC(=O)c2ccc(C(=O)NCc3cccc(O)c3)cc2Br)C(=O)O)s1` [Example 259], the half-inhibitory concentration (IC50) in assay [1] turned out to be 8.14 nM. `CCc1nc(C(C)C)c(/C=C(\NC(=O)c2ccc(C(=O)NCc3cccc(O)c3)cc2Cl)C(=O)O)s1` [Example 303, (Z)-2-[[2-Chloro-4-[[3-(3-hydroxybenzyl)amino]carbonyl]benzoyl]amino]-3-[2-ethyl-4-(1-methylethyl)thiazol-5-yl]propenoic Acid] registered an IC50 in assay [1] of 190 nM. In assay [1], `C[C@@H](NC(=O)c1cc(Cl)c(C(=O)N/C(=C\c2ccc3[nH]nnc3c2)C(=O)O)c(Cl)c1)c1cccc2ccccc12` [Example 242] displayed a 50% inhibitory concentration (IC50) of 22 nM. `Cc1cc(C(=O)N[C@H](C)c2cccc3ccccc23)cc(C)c1C(=O)N/C(=C\c1ccc2[nH]nnc2c1)C(=O)O` [Example 239] had an IC50 in assay [1] of 2.15 nM. Same read-out and setting: under `Cn1c(/C=C(\NC(=O)c2ccc(C(=O)NCc3cccc(O)c3)cc2Br)C(=O)O)nc2ccccc21` [Example 288] stands 201 nM; under `O=C(O)/C(=C/c1cccs1)NC(=O)c1ccc(C(=O)NCc2cccc(O)c2)cc1Br` [Example 271], 33 nM. The compound `O=C(O)/C(=C/c1nc2ccccc2s1)NC(=O)c1ccc(C(=O)NCc2cccc(O)c2)cc1Br` [Example 276] returned a half-inhibitory concentration (IC50) in assay [1] of 50.6 nM.
